Experiment [1] concerns BJ. The experiment can be described thus: cells. The note with it: Homo sapiens. Type of experiment: functional, cell-based.
The nature of experiment [2]: HEK-293T viability loss after treatment – luminescence, T-cell screen hits, cytotoxicity control for TCR NF-kB inhibitor project, dose response (AID 489026).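 Note: cells exposed to compound about 14 hours before the viability readout.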 The class given is functional, cell-based.
Experiment [3] in a line: DRD fibroblast viability loss – cell-based, non-viral oncogenic, luminescence, dose response (AID 1934). Type of experiment: functional. The note with it: Homo sapiens.
Experiment [4] deals with BJ. The experiment can be described thus: growth inhibition of engineered Ras-driven BJ cells – cell-based, alamar blue fluorescence, cherrypicked samples, dose response (AID 2631).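 Note: confirmatory dose-response assay in RAS-dependent BJ fibroblasts engineered with TERT, LT and ST, with cytotoxicity read by fluorescence.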 The class given is functional. The note with it: Homo sapiens. (Alamar Blue is a resazurin reagent that responds to reducing activity.)
Experiment [5] relates to BJ. Briefly: BJ-TERT fibroblast viability loss – cell-based, RAS-independent, luminescence, dose response (AID 1933). The class given is functional. The settings on record: Homo sapiens.
Experiment [6] concerns BJ. Briefly: BJ-TERT-LT-ST fibroblast viability loss – cell-based, RAS-independent, luminescence, dose response (AID 1935).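 Note: BJ fibroblasts immortalized with TERT plus LT and ST oncogenes.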 Type of experiment: functional. The settings on record: Homo sapiens.
Experiment [7] can be described thus: NIH-3T3 fibroblast cytotoxicity, dose response, cytotoxicity control, cell-based, fluorescence, Alamar Blue, secondary assay (AID 2327).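 Note: NIH-3T3 mouse fibroblasts cultured with fluconazole at 8 µg/mL.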 The class given is functional.
The target in experiment [8] is T1, Carboxy-terminal domain RNA polymerase II polypeptide A small phosphatase 1 (Homo sapiens, UniProt Q9GZU7).
T1 sequence (Q9GZU7 whole entry): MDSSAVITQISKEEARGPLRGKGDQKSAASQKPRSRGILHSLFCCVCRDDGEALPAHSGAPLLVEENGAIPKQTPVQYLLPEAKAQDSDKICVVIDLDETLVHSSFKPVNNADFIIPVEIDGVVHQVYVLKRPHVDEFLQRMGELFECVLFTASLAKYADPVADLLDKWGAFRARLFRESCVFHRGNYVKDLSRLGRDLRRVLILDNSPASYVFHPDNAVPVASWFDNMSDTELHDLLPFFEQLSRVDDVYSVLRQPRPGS
The experiment can be described thus: CTDSP1 inhibitors, concentration-response, biochemical, absorbance readout, ultra-high-throughput screen actives (AID 540297). Type of experiment: functional.

Experiment [9] is described as follows: fluconazole-exposed Candida albicans growth modulators – fluorescence, retest, confirmation (AID 2467). Type of experiment: functional, cell-based.
A short description of experiment [10]: Luminescence Cell-Based Dose Confirmation HTS to Identify Inhibitors of Platelet Dense Granule Release. [Related pubchem assays: 1663 (Primary HTS), 1678 (Summary of Project)]. Type of experiment: functional.
Experiment [11] addresses Luciferin 4-monooxygenase (Photinus pyralis, UniProt P08659). The experiment can be described thus: inhibition of purified Photinus pyralis luciferase – biochemical, luminescence, dose response (AID 1891).
The target in another experiment is Melanocortin receptor 4 (Homo sapiens, UniProt P32245). The class given is functional, cell-based.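 Note: Cell-based assay with luminescence read-out, confirmatory dose-response testing for agonist activity of biased ligands at MC4R; human U2OS cells with tagged receptor and beta-arrestin; potency of agonists that increase receptor coupling to beta-arrestin.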
Experiment [12] in a line: microbe, parasite or virus in culture. The class given is functional. The note with it: Mycobacterium tuberculosis.
Experiment [13] in a line: Luminescence Cell-Based Dose Retest to Confirm Inhibitors of Cancer Stem Cells. [Related pubchem assays (depositor defined):AID2717, AID2721]. The settings on record: Homo sapiens. Type of experiment: functional.
Experiment [14] is described as follows: reduction of Shn3 3'UTR-driven luciferase in osteoblasts – cell-based, Clone20 osteoblasts, firefly luciferase, cherry-picked, dose response (AID 624132).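 Note: firefly luciferase luminescence from reporter carrying the Shn3 3'UTR in osteoblasts.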 The class given is functional.
Experiment [15] is described as follows: loss of viability in HepG2 cells – cell-based, CellTiter-Glo, cherry-picked, cytotoxicity control for Shn3 inhibitor project, dose response (AID 624134). Type of experiment: functional.
For another experiment, the target named is Beta-galactosidase (Escherichia coli, UniProt Q8VNN2). The experiment can be described thus: detection-enzyme interference by beta-gal modulators – biochemical, E. coli enzyme, set 3, artefact control for CCR6 antagonist project, dose response (AID 504712). The class given is functional.
Another experiment addresses T2, Streptokinase A (Streptococcus pyogenes serotype M1, UniProt P10520).
T2 sequence (P10520 whole entry): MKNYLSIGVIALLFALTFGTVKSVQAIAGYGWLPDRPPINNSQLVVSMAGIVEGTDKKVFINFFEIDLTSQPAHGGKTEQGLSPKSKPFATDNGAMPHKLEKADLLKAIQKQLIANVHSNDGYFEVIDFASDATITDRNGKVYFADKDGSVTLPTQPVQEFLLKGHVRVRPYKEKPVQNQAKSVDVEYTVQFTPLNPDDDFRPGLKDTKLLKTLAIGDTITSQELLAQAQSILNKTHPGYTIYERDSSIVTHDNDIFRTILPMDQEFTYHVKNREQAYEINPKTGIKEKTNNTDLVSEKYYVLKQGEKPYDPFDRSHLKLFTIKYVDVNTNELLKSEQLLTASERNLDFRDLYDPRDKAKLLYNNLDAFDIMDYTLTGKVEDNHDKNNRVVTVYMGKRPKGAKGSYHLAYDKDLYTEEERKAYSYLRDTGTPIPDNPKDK
Briefly: viability-normalized secreted streptokinase activity reduction – plasminogen activation absorbance, OD405, dose response (AID 1914).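 Note: secreted streptokinase activity via plasminogen activation per viability signal from cell pellet.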 Type of experiment: functional, Streptococcus pyogenes M1 GAS.

A further experiment deals with Vero. Briefly: cells. The settings on record: Chlorocebus sabaeus. The class given is functional.
Experiment [16] has as its system Streptococcus sp. 'group A'. The experiment can be described thus: Streptococcus pyogenes SK(-)GAS viability under kanamycin – luminescence, BacTiterGlo, confirmation, counter-screen for streptokinase expression inhibitor project, dose response (AID 1900). Type of experiment: functional, organism-based. For orientation: A counterscreen serves to expose hits that act by an unwanted route or on another target.

Another experiment has as its system Streptococcus. The experiment can be described thus: GAS UMAA2166 growth inhibition – luminescence, BacTiterGlo, counter-screen for streptokinase expression inhibitor project, dose response (AID 1915).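 Note: potency for reduction of bacterial viability or growth.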 The class given is functional, organism-based.
For experiment [17], the target named is T3, Short transient receptor potential channel 4 (Mus musculus, UniProt Q9QUQ5).
T3 sequence (Q9QUQ5 whole entry): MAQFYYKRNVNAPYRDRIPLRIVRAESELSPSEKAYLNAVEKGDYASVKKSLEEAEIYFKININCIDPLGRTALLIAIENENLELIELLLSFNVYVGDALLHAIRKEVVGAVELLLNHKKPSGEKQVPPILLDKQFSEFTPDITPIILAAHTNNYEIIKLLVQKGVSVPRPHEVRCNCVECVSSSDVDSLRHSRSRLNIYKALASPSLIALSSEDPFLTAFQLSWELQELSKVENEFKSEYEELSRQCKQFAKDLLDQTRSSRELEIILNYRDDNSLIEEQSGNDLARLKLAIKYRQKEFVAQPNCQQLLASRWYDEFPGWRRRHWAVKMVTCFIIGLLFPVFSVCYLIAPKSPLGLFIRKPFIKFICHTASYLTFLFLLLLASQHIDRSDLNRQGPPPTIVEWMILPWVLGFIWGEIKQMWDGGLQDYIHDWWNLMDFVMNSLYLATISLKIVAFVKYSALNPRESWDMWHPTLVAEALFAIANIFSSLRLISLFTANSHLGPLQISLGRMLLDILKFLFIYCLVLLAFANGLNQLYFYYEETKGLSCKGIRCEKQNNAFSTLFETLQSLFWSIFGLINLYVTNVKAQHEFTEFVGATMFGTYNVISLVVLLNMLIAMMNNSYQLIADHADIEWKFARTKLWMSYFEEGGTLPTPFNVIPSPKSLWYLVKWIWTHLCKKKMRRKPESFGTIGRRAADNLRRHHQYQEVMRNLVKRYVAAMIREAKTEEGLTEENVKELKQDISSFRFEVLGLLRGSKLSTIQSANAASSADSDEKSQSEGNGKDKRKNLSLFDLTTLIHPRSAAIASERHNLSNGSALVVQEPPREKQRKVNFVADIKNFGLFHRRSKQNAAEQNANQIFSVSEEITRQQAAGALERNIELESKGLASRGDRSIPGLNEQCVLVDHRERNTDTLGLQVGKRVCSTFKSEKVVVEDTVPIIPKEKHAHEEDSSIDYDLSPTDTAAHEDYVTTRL
The experiment can be described thus: calcium entry via TRPC4 opening agents – cell-based, HEK293 TRPC4/mu-opioid, Fluo-4 calcium, dose response (AID 434937). The class given is functional.

A short description of experiment [18]: A cytotoxicity screen of small molecule inhibitors of the PhoP region in Salmonella typhi identified in the primary screen. [Related pubchem assays: 1850, 1864, 1985 ]. The class given is functional.
Another experiment relates to HEK293. Briefly: EBV LMP1 TES2 canonical NF-kB signalling blockers – cell-based, HEK293, luciferase, cherry-pick, dose response (AID 588343). The class given is functional. The settings on record: Homo sapiens.
Experiment [19] has as its target T4, High affinity choline transporter 1 (Homo sapiens, UniProt Q9GZV3).
T4 sequence (Q9GZV3 whole entry): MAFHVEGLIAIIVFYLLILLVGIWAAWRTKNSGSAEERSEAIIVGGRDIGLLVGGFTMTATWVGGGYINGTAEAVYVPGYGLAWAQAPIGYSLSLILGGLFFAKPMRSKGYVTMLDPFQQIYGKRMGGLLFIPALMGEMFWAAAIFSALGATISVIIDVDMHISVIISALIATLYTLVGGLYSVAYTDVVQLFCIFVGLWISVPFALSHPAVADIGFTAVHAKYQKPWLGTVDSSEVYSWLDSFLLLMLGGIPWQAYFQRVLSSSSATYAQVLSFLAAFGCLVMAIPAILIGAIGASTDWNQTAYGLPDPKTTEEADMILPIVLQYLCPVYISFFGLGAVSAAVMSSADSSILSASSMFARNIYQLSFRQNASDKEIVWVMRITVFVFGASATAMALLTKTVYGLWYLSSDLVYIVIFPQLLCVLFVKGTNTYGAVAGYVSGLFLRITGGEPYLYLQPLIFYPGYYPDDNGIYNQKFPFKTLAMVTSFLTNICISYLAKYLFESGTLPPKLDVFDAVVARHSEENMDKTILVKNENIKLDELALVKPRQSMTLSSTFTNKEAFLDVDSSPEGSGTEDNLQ
Briefly: human choline transporter blockers, potency – cell-based, 5-point CRC, membrane potential dye, dose response (AID 504840). The class given is functional.

Experiment [20] has as its target Casein kinase I isoform alpha (Homo sapiens, UniProt P48729). The class given is functional.

Activity calls are given as the source filed them. Some results are limits rather than exact numbers.

Sequence of Melanocortin receptor 4 (P32245 whole entry): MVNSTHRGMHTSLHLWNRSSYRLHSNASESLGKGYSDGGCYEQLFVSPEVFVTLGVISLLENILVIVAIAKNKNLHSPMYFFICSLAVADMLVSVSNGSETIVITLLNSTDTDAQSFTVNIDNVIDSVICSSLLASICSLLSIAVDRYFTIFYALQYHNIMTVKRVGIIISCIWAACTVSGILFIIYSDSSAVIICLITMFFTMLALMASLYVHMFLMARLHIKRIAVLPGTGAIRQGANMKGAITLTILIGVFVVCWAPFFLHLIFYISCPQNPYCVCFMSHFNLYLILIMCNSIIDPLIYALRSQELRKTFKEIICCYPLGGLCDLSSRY
Sequence of Luciferin 4-monooxygenase (P08659 whole entry): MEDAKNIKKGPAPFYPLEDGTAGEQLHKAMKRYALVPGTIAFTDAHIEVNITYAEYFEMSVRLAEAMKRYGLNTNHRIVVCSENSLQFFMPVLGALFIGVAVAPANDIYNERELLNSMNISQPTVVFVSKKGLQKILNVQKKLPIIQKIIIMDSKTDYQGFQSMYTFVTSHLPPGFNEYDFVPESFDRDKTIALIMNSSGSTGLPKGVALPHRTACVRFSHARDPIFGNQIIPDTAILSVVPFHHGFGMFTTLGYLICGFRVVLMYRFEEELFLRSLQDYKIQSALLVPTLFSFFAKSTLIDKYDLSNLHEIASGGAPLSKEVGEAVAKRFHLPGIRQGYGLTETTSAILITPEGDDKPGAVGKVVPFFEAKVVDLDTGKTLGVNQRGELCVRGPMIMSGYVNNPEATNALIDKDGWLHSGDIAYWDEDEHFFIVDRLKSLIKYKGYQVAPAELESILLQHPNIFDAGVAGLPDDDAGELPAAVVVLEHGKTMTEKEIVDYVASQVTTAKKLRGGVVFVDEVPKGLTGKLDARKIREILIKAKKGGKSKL
Sequence of Casein kinase I isoform alpha (P48729 whole entry, canonical isoform): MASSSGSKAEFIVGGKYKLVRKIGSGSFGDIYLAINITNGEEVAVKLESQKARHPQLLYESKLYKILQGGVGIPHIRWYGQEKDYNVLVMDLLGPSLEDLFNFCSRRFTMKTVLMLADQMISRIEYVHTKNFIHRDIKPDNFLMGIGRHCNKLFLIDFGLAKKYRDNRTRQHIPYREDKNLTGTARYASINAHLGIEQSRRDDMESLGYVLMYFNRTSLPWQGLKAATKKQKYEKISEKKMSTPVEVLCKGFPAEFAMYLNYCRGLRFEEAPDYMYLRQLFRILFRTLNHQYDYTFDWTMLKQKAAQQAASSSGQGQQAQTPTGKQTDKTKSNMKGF
Sequence of Beta-galactosidase (Q8VNN2 whole entry): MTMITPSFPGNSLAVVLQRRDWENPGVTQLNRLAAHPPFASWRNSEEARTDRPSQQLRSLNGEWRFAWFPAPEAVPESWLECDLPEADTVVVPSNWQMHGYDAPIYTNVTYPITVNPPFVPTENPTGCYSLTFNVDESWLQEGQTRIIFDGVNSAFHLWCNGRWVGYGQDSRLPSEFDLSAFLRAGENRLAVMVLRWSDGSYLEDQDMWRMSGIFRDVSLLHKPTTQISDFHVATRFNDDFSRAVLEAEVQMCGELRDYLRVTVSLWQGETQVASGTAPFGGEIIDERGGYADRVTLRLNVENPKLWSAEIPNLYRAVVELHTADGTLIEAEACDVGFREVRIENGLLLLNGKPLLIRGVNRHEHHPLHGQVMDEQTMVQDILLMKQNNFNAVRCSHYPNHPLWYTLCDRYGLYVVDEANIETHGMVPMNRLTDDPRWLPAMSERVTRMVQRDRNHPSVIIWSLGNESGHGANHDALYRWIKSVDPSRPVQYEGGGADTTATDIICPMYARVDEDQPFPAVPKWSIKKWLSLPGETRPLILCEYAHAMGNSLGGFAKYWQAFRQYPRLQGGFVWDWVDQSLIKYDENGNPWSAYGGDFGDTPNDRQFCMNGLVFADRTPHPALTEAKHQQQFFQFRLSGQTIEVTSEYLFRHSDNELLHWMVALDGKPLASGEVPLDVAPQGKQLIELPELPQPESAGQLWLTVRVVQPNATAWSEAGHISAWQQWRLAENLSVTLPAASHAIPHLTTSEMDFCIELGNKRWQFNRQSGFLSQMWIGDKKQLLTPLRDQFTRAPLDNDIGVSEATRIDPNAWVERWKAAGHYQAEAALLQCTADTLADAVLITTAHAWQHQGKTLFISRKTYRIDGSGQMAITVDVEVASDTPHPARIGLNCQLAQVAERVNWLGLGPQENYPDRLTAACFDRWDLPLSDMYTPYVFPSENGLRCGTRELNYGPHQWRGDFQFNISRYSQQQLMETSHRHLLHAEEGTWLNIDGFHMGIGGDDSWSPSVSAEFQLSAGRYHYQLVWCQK

One may read the EC50 as the concentration at which the effect is half-maximal. As a reminder, the IC50 is the concentration that inhibits the measured activity by half. Consider `CC(C)Oc1ccccc1C1CC(=O)Nc2cc3c(cc21)OCCO3` (configuration not stated), for which the EC50 is 8.62 µM (active) in the experiment on BJ [1]; 676 nM (active) in experiment [3]; 181 nM (active) in the experiment on BJ [4]; 1.36 µM (active) in the experiment with BJ [5]; 709 nM (active) in the experiment with BJ [6]. For the same compound, the IC50 in experiment [2] is > 80 µM (inactive).
For the compound `N#C/C(=C\c1ccc(OC(=O)c2cccs2)cc1)c1nc2ccccc2[nH]1`, the EC50 in [7] is 76.2 µM (active); in experiment [9] it was 3.35 µM (active). Further, the IC50 in [8] is 11.4 µM (active).
`COc1cccc(CC2(CO)CCCN(Cc3[nH]c4ccc(C)cc4c3C)C2)c1` (configuration not stated): the EC50 is > 112 µM (not active) in [10], > 112 µM (not active) in experiment [11] and > 89.2 µM (inactive) on Melanocortin receptor 4. In addition, the CC50 in [12] was 39.3 µM (active).
A word on the AC50: it is the concentration at which the activity in the assay is half-maximal. On to `CC(C)C[C@@H](CO)N(Cc1ccccc1)S(=O)(=O)N(Cc1ccccc1)[C@H](CO)CC(C)C`, for which the AC50 in [13] was 5.76 µM (active); in [14], 10.1 µM (active); in [15], 21 µM (active).
As for `CCOc1ccc(C=NNc2ccc(S(=O)(=O)Nc3ccccc3C(=O)O)cc2[N+](=O)[O-])cc1OC`, the IC50 in [8] is 3.51 µM (active); on Beta-galactosidase, > 66.6 µM (inactive).
For `Cc1ccccc1C(=O)NNC(=S)NC(=O)c1cccs1`, the EC50 on Streptokinase A was > 150 µM (not active); in [16], 3.53 µM (active); in the experiment with Streptococcus, 18.2 µM (active); in experiment [17] it was 5.96 µM (active). Also, the CC50 with Vero was > 25 µM (active).
On to `Cc1ccccc1NC(=O)CSc1nc2ccccc2c(=O)n1C`, for which the AC50 in experiment [14] is 7.64 µM (active); in experiment [15] it was 59.6 µM (active).
Take `COc1cccc(C2c3c(-c4ccccc4)n[nH]c3C(=O)N2c2ccc(C(=O)O)cc2)c1` (configuration not stated): the IC50 in experiment [8] is 5.63 µM (active).
On to `Cc1cc(CSC(=N)N)c(CSC(=N)N)cc1C`, for which the EC50 in experiment [18] is > 50 µM (active); in experiment [17], 2.11 µM (active).
On to `CC(=O)Nc1cc(-c2ccccc2)cn2c(-c3ccc(F)c(Cl)c3)cnc12`, for which, at Melanocortin receptor 4, the EC50 was > 89.2 µM (inactive).
For `C[C@@H]1CN([C@@H](C)CO)S(=O)(=O)c2ccc(/C=C/c3ccccc3)cc2O[C@@H]1CN(C)Cc1ccc(C(=O)O)cc1`, the AC50 with HEK293 was 35.4 µM (active).
On to `CC1(C)CC(=O)C=C(Nc2cccc(Cl)c2Cl)C1`, for which the IC50 in experiment [19] is 3.16 µM (active).
As usually defined, the Ki is the equilibrium dissociation constant of an inhibitor or competing ligand from its target. As for `N#Cc1cnc(Cl)nc1N`, the Ki in experiment [20] is 100 µM (active).
